Assay results reported in US8609399B2, “Reducing insoluble deposit formation in ethanol production” (Global Process Technologies, Inc., priority 2007, dated 2013).

Experiment: Solubility in Presence of Ethanol (temperature at which a precipitate became visible)
Assay type: physicochemical
Settings: 800 ppm Mg2+ and 3600 ppm phytic acid
Text: In the table, the water and ethanol columns indicate the temperature at which a precipitate became visible in a solution containing 800 ppm Mg^2+ and 3600 ppm phytic acid.

Temperature (° C.; in 13% ethanol/87% water solution) at which a precipitate became visible (pH 4.35): 40 °C
Temperature (° C.; in 100% water solution) at which a precipitate became visible (pH 4.52): 80 °C
Temperature (° C.; in 13% ethanol/87% water solution) at which a precipitate became visible (pH 4.53): 30 °C
Temperature (° C.; in 13% ethanol/87% water solution) at which a precipitate became visible (pH 4.6): 21 °C
Temperature (° C.; in 100% water solution) at which a precipitate became visible (pH 4.97): 60 °C
Temperature (° C.; in 100% water solution) at which a precipitate became visible (pH 5.36): 40 °C
Temperature (° C.; in 100% water solution) at which a precipitate became visible (pH 5.6): 21 °C
Substance: magnesium phytate
